The source of these data is PubChem BioAssay AID434951 (Broad Institute, 2010).

Calls of active or inactive are those of the source.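 How the source made its calls: active means a fitted half-maximal concentration EC50 for the rise in nuclear signal no higher than ten times the top dose tested; inconclusive means flat fit with activity between 30% and 70%, or unusable fit; inactive means EC50 beyond ten times the top dose.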

For orientation: EC50 means the concentration giving half of the maximal effect.

Chain of Hypoxia-inducible factor 1-alpha (Homo sapiens) (Q16665 whole entry, looked up): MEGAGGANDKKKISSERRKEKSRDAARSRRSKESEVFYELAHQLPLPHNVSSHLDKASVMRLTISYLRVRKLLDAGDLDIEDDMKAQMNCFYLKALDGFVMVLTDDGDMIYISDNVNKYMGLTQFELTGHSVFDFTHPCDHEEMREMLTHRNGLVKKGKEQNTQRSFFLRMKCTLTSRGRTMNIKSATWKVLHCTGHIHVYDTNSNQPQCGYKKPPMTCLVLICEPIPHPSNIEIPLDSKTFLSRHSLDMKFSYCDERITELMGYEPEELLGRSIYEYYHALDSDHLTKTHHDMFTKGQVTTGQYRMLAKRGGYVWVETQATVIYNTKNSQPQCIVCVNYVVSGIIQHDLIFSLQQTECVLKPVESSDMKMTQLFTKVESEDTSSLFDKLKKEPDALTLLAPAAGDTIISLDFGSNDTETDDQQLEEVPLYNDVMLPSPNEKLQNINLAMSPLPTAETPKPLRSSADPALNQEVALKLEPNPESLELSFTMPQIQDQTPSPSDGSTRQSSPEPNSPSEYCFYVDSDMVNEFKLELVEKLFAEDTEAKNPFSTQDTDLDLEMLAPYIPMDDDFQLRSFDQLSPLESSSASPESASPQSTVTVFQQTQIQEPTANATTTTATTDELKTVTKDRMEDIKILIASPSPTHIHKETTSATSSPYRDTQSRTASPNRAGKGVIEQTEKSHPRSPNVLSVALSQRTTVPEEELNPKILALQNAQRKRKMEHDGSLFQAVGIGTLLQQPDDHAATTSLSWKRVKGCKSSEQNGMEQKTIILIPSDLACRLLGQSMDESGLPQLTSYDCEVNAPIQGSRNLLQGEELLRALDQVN

This test concerns the target Hypoxia-inducible factor 1-alpha (Homo sapiens) (UniProt Q16665). Briefly: activators of HIF1alpha nuclear accumulation, confirmation, imaging, fluorescence, U2OS GFP-HIF1alpha (AID 434951). The following applies: U2OS GFP-HIF1alpha nuclear intensity, high-content imaging.
As to `Cc1onc(-c2c(Cl)cccc2Cl)c1C(=O)N=C(N)N1CCCC1`, the EC50 was > 35 µM (inactive).

`Cc1ccc(C2(C)NC(=O)N(CC(=O)NC(=O)NC(C)(C)C)C2=O)cc1` (configuration not stated): the EC50 is > 35 µM (inactive). The figure for `O=C(NCCCn1ccnc1)c1cc(-c2ccccc2)on1` is 3.8 µM. As to `CC(C)c1nnc(NC(=O)CCC(=O)NC2CC2)s1`, the EC50 was > 35 µM (inactive).

Turning to `CNNC(=O)C(C)NC(=O)c1ccc(Br)cc1` (configuration not stated), the EC50 is > 35 µM (inactive). For the compound `N/C(=N\OC(=O)Cc1cccs1)c1ccccc1`, the EC50 was > 35 µM (inactive). For the compound `CCOC(=O)c1c(C)[nH]c(C(=O)N/N=C\c2ccccc2O)c1C`, the 50% effective concentration (EC50) is 5.66 µM. Consider `COc1ccc(CC(=O)Nc2cccc(-c3nnc(-c4ccccc4)o3)c2)cc1OC`, for which the EC50 is > 35 µM (inactive). As for `Cc1ccc(Nc2c(-c3ccccn3)nc3cc(C)ccn23)cc1`, the EC50 is 5.51 µM. The figure for `CCCCC(=O)NC(c1ccccc1Cl)c1ccc2cccnc2c1O` (configuration not stated) is 3.16 µM; for `COc1ccc(C(=O)CCNc2ccc(F)cc2)cc1` it is > 35 µM (inactive). Next, `COC(=O)CNC(=O)CSc1nnc2cc(C)c3ccccc3n12`: > 35 µM (inactive); `CC(Sc1nnc(COc2ccc([N+](=O)[O-])cc2)n1C)C(=O)O` (configuration not stated): > 35 µM (inactive); `CC(=O)c1ccc(C(=O)N2CCCC(Nc3ccc(C(C)C)cc3)C2)s1` (configuration not stated): > 35 µM (inactive).

As to `CCOc1ccc(/C=N/NC(=O)c2[nH]ncc2Br)c(O)c1`, the 50% effective concentration (EC50) was 10.2 µM.

Regarding `COc1cc(C2CC(=O)N3CN(Cc4ccccc4)CSC3=C2C#N)ccc1OCc1ccccc1` (configuration not stated), the EC50 was > 35 µM (inactive). `CC(C)COc1cccc(C(=O)NNC(=O)C2COc3ccccc3O2)c1` (configuration not stated): the EC50 is > 35 µM (inactive). Regarding `Cc1ccc(N2CC(=O)Nc3c(sc4nc(C)cc(C)c34)C2=O)cc1`, the EC50 was > 35 µM (inactive).

In the case of `CCOc1ccc(/C=C/C(=O)c2ccccc2)cc1OC`, the EC50 was 19.7 µM. Next, `COc1ccc(C/C(C)=N/NS(=O)(=O)c2ccc(Br)cc2)cc1`: > 35 µM (inactive); `Cc1nc(-n2[nH]c3c(c2=O)CCCC3)[nH]c(=O)c1Cc1ccccc1`: 9.42 µM.

Regarding `Cc1ccc(C(CC(=O)O)C2CCOC(C)(C)C2)cc1` (configuration not stated), the EC50 was > 35 µM (inactive). With `CCC(=O)NC(c1ccc(OC)cc1)c1cc(Cl)c2cccnc2c1O` (configuration not stated), the concentration giving a half-maximal response (EC50) is 11.8 µM.

As for `O=C(N/N=C\c1c(O)ccc2ccccc12)c1ccc(Cn2cccn2)o1`, the EC50 was 5.3 µM. Next, `COc1ccc(NC(=S)Nc2ccccn2)c(OC)c1`: > 35 µM (inactive). The figure for `O=C(N/N=C(\c1ccccc1)c1cccnc1)c1cccc(F)c1` is 2.62 µM; for `COc1cc(OC)c2nc(C)c3c(c2c1)N(c1ccc(O)cc1)CC3` it is > 35 µM (inactive); for `Cc1cc(C)n(-c2ccc3cccc(NS(C)(=O)=O)c3n2)n1` it is 5.59 µM. As for `O=C(CNC(=O)C(c1ccccc1)c1ccccc1)N/N=C/c1ccc(O)cc1O`, the EC50 is > 35 µM (inactive).

Take `CCCCn1c(N)c(N(CC)C(=O)c2cc(OC)cc(OC)c2)c(=O)[nH]c1=O`: the EC50 was > 35 µM (inactive). As for `C/C(=N\NC(=O)Cc1ccc(Cl)cc1)c1ccccn1`, the EC50 was 5.92 µM. Next, `CCOC(=O)C1=C(C)NC(C)=C(C(=O)OCC)C1C(=O)OCC(=O)N(C)C1CCS(=O)(=O)C1` (configuration not stated): > 35 µM (inactive); `Cc1cc(C)c2nc(NNC(=O)c3ccc(S(=O)(=O)N4CCCC(C)C4)cc3)sc2c1` (configuration not stated): 7.23 µM; `Oc1c(CN2CCN(c3ccccc3)CC2)cc(Br)c2cccnc12`: 5.65 µM. The figure for `CC(=O)NC(c1ccc(Cl)cc1Cl)c1ccc2cccnc2c1O` (configuration not stated) is 12.8 µM; for `COc1ccc(/C=C(\C#N)c2nc3ccccc3[nH]2)cc1O` it is > 35 µM (inactive); for `O=C1CCCc2ccccc2N1Cc1ccc(F)cc1` it is > 35 µM (inactive). Next, `CCC/C(O)=C1\C(=O)CC(C)(C)CC1=NCc1ccccc1`: > 35 µM (inactive); `CC(=O)N(O)CCCCCNC(=O)CCC(=O)N(O)CCCCCNC(=O)CCC(=O)N(O)CCCCCN`: 5.56 µM; `CCOC(=O)C1CCCN(C(=O)c2ccc3nc(-c4ccccc4)c(-c4ccccc4)nc3c2)C1` (configuration not stated): > 35 µM (inactive). For `C=CCOc1ccc(/C=C2\SC(=Nc3cccnc3)NC2=O)cc1`, the EC50 is > 35 µM (inactive).

Regarding `Cn1cc(CC(=O)N2CCN(c3ccc(Cl)cc3)CC2)c2ccccc21`, the EC50 was > 35 µM (inactive). The figure for `Cc1cc(NC(=O)C2CC(=O)N(c3cccc(C)c3C)C2)no1` (configuration not stated) is 33.3 µM; for `CC(Oc1ccc2c3c(c(=O)oc2c1)CCCC3)C(=O)NCC(O)c1ccccc1` (configuration not stated) it is > 35 µM (inactive). Regarding `O=C1OCc2cc(NC(=O)C34CC5CC(CC(C5)C3)C4)ccc21`, the EC50 was > 35 µM (inactive). For `O=C(Nc1cccc(Cl)c1)Nc1cccc(C(=O)O)c1`, the EC50 is > 35 µM (inactive).

In the case of `COc1ccc(NC(=O)CSc2nc3c(c(=O)[nH]2)CCC3)cc1OC`, the EC50 was > 35 µM (inactive).

Regarding `COc1cc(NC(=O)CN2C(=O)c3ccccc3Sc3ccc(C(=O)N4CCOCC4)cc32)cc(OC)c1OC`, the EC50 was > 35 µM (inactive). The figure for `Cc1nnc(N/N=C/c2ccccn2)[nH]c1=O` is 5.75 µM.

Consider `CCC(=O)n1nc(NCc2ccc(OC)c(OC)c2)nc1NCc1ccc(OC)c(OC)c1`, for which the EC50 was > 35 µM (inactive). Next, `O=C(Cn1c(Cc2ccccc2)nc2ccccc21)NCc1ccc2c(c1)OCO2`: > 35 µM (inactive); `O=C(COc1ccccc1)N(Cc1cccc(F)c1)C1CCS(=O)(=O)C1` (configuration not stated): > 35 µM (inactive). As for `CCNS(=O)(=O)c1ccc(NC(=O)c2cncc(Br)c2)cc1`, the EC50 is > 35 µM (inactive). On to `COc1ccc(C2(C)NC(=O)NC2=O)cc1OC` (configuration not stated), for which the EC50 is > 35 µM (inactive). The figure for `CCN(CCCNC(=O)CCc1nc(-c2ccc(OC)cc2)no1)c1cccc(C)c1` is > 35 µM (inactive); for `CC1CCN(Cc2nnnn2CCCC(=O)NCCc2cnn(C)c2)CC1` it is > 35 µM (inactive); for `CCc1cnccc1CCC(=O)Nc1ccccc1C` it is > 35 µM (inactive). `CCOc1cccc(-c2c(C(=O)N/N=C/c3ccc(Br)cc3)nnn2-c2nonc2N)c1`: the EC50 is > 35 µM (inactive). The figure for `O=C(CSc1ncn[nH]1)NCCc1ccc(Cl)cc1Cl` is > 35 µM (inactive); for `CCOC(=O)c1c(NC(=O)CCC(=O)O)sc2c1CCCCC2` it is > 35 µM (inactive); for `COc1ccc(C(NC(=O)C(C)C)c2ccc3cccnc3c2O)cc1` (configuration not stated) it is 2.66 µM. Next, `CCOc1ccc(N2C(=O)CC(Sc3nc(C)cc(C)n3)C2=O)cc1` (configuration not stated): > 35 µM (inactive); `Cc1ncc(CO)c(/C=N/Nc2ccc(C(F)(F)F)cn2)c1O`: 17.8 µM; `CN(Cc1cccnc1)C(=O)c1cc(COc2ccc3ncccc3c2)on1`: > 35 µM (inactive).

As to `COc1cccc2sc(N3CCN(C(=O)c4ccc([N+](=O)[O-])o4)CC3)nc12`, the EC50 was > 35 µM (inactive). On to `CCCC(=O)NC(c1ccccc1OC)c1ccc2cccnc2c1O` (configuration not stated), for which the concentration for a half-maximal effect (EC50) is 5.97 µM.

On to `COc1cccc(CNC(=O)CCCn2c(=S)[nH]c3cc4c(cc3c2=O)OCO4)c1`, for which the EC50 was > 35 µM (inactive). Next, `O=S(=O)(CCSc1nc2ccccc2s1)c1nc2ccccc2s1`: > 35 µM (inactive). Next, `Cc1cc(N/N=C/c2ccc(O)cc2O)nc(-c2ccccc2O)n1`: 4.53 µM; `CC(C)C(=O)NC(c1ccco1)c1ccc2cccnc2c1O` (configuration not stated): 4.47 µM; `CC(C)=CCSc1nnc([C@@H](N)Cc2c[nH]c3ccccc23)o1`: > 35 µM (inactive).

On to `CCCc1nc2ccccc2c(=O)n1/N=C/c1ccccc1O`, for which the EC50 is > 35 µM (inactive). Turning to `O=C(Cc1ccc(S(=O)(=O)N2CCOCC2)s1)Nc1ccc(S(=O)(=O)N2CCCCC2)cc1`, the EC50 was > 35 µM (inactive). With `Oc1ccccc1N=Nc1ccccc1O`, the EC50 is 2.01 µM.

As for `Oc1c(C(Nc2cccc(C(F)(F)F)c2)c2ccncc2)ccc2cccnc12` (configuration not stated), the concentration giving a half-maximal response (EC50) is 6.49 µM. Turning to `COC(=O)c1cn(C)c2ccc(S(=O)(=O)N3CCCCC3)cc2c1=O`, the EC50 was > 35 µM (inactive). Next, `Cc1cccc(NC(=S)N2CCC(N(C)CC3CCCO3)CC2)c1` (configuration not stated): > 35 µM (inactive); `CCCCn1c(=O)[nH]c(=O)c2c(C(=O)OCC)cc(-c3cccs3)nc21`: > 35 µM (inactive); `O=C(O)c1ccc2cc(-c3ccccc3)[nH]c2c1`: > 35 µM (inactive). On to `COc1ccc(Cc2nnc(SCC(=O)NC3CCCCC3)n2C)cc1`, for which the EC50 is > 35 µM (inactive). The figure for `COc1ccc(O)c(/C=N/NC(=O)c2ccc(OCc3cccc(Br)c3)cc2)c1` is 5.72 µM; for `CCC1CCCCN1Cc1c(O)ccc2c(=O)c(-c3ccccc3OC)coc12` (configuration not stated) it is > 35 µM (inactive). `COc1cc(C(=O)Oc2ccccc2/C=N/NC(=O)c2ccc(Cl)cc2)cc(OC)c1OC`: the half-maximal effective concentration (EC50) was 35.8 µM. Next, `c1ccc(CSC2=NNC(c3ccccn3)S2)cc1` (configuration not stated): 18.6 µM; `COc1ccc(C2NC(=S)NC3=C2CCCC3=C2SCCS2)cc1` (configuration not stated): 17.8 µM; `O=C(NCC1CCCO1)c1cc(-c2ccccc2)on1` (configuration not stated): 6.78 µM. The figure for `CCOC(=O)CN1C(=N)N(c2nc(NC(C)C)nc(NC(C)C)n2)CC1=O` is > 35 µM (inactive); for `CN(C)c1ccc(N=Nc2ccc(S(N)(=O)=O)cc2)cc1` it is > 35 µM (inactive).

On to `CCn1c(SCC(=O)c2cc(C)ccc2C)nc2cc(S(=O)(=O)N3CCOCC3)ccc21`, for which the EC50 is > 35 µM (inactive). The figure for `COc1ccc(C2NN=C(c3ccc(C)cc3)S2)cc1` (configuration not stated) is > 35 µM (inactive); for `Cc1ccc2nc(SCC(=O)Nc3ccc(Br)cc3)nc(=O)n2c1` it is > 35 µM (inactive); for `COc1ccc(CCNC(=O)COC(=O)CCC(=O)c2ccc(F)cc2)cc1OC` it is > 35 µM (inactive).
